These results are taken from patent publication US5554653A, “Inhibitors of HIV protease useful for the treatment of AIDS” (Eli Lilly and Company, priority 1992, dated 1996).

As a reminder, the IC50 is the concentration at which inhibition is half-maximal.

This test deals with T1, HIV-1 protease (Human immunodeficiency virus type 1 group M subtype B, UniProt P04585).
T1 construct: Purified HIV-1 protease was obtained as described above; made in house; host or cells: E. coli K12 L507/pHP10D (NRRL B-18560)
Briefly: biochemical. The conditions noted are these: for IC50: read-out: Fluorescence Assay IC50 (converted). In kind it is biochemical. As to the method: C. Preparation of Protease Fraction
A culture of E. coli K12 L507/pHP10D was grown to mid-log phase at 32° C. in LB media containing 12.5 μg/ml tetracycline. The cultivation temperature was quickly elevated to 40° C. to induce gene expression, and the cells were allowed to grow for 2.5 hours at this temperature before the culture was quickly chilled on ice. The cells were centrifuged and the cell pellet was resuspended in 20 mL 50 mmol MES buffer (pH 6.0) containing 1 mmol EDTA, 1 mmol DTT, 1 mmol PMSF and 10% glycerol ("Buffer A"). Cells were lysed by sonication using a Fischer Model 300 Dismembrator and a microtip probe. Following centrifugation at 27,000×g, the supernatant was diluted to a total volume of 60 mL with Buffer A and loaded onto a 2.0×19 cm QAE-Sepharose column (1 mL/min, 4° C.), that had been equilibrated in Buffer A. The column was washed isocratically for 180 min and then eluted with a gradient eluent of 0-1.0M sodium chloride in Buffer A over 120 min. Enzymatic activity was measured by HPLC using the synthetic peptide SQNYPIV as described in Margolin et al., Biochem. Biophys. Res. Commun., 167, 554-560 (1990); the production of the p1 peptide (SQNY) was measured.
The active fractions were combined, made 1.2M in ammonium sulfate, and applied to a 2.0×18 cm hexyl agarose column that had been equilibrated in Buffer A containing 1.2M ammonium sulfate. The sample was loaded at a flow rate of 1 mL/min at 4° C., washed with the equilibration buffer for 240 min (1 mL/min) and then eluted using a reverse linear gradient of 1.2-0M ammonium sulfate in Buffer A for 120 min at the same flow rate. The column was then washed isocratically in Buffer A for 120 min.
The active fractions were combined, concentrated to 10 mL using an Amicon stirred cell with a YM-10 membrane and then applied to a MonoS cation exchange column (1.0×10 cm) that had been equilibrated in Buffer A. The sample was loaded at a flow rate of 1 mL/min at 25° C. After washing isocratically for 30 min, the protease was eluted using a linear gradient of 0-0.45M sodium chloride in Buffer A over 40 min. The column was washed isocratically in Buffer A containing 0.45M sodium chloride for 30 min.
The active fractions were combined and concentrated to 200 μL using an Amicon stirred cell and a YM-10 membrane and then the protease was applied to a Superose 6 size exclusion column equilibrated in Buffer A containing 0.1M sodium chloride.
The purified peptide was labeled with a fluorescent marker at the C-terminal end for use in the Pandex assay. N^α -Biotin-[…]OH SEQ ID NO:3. (1.206 g, 0.936 mmol) was dissolved in 100 mL of 0.1M sodium borate, pH 9.5. Then, a solution of 3 g (7.7 mmol) of fluorescein isothiocyanate in 15 mL dimethyl sulfoxide was added to the reaction mixture in 10 equal portions over two hours. The resulting mixture was allowed to react for one hour after the final addition. The solution was adjusted to pH 3 using 5N hydrochloric acid, resulting in the formation of a precipitate which was removed by centrifugation.
E. Fluorescence HIV-1 Protease Inhibitor Assay
The following buffers and solutions are used in the Fluorescence HIV-1 Protease Inhibitor Assay:
MES-ALB Buffer: 0.05M 4-morpholineethane
Avidin Coated 0.1% solution of Fluoricon
Beads Solution: Avidin Assay Particles
(Avidin conjugated to solid
polystyrene beads, 0.6-0.8
microns in diameter in TBSA
27 IU/mL of purified HIV-1
protease in MES-ALB buffer
(1 IU equals the amount of
enzyme required to hydrolyze
1 μmole of substrate per
To each well of a round bottom, 96-well plate is added 20 μL of the Enzyme Solution followed by 10 μL of the compound to be evaluated in a 20% aqueous dimethylsulfoxide solution. Purified HIV-1 protease was obtained as described above.

Where only a bound is given, the exact number is not on record here.

Turning to `CC(=O)N[C@H](CC(=O)Nc1cnc2ccccc2c1)C(=O)N[C@@H](Cc1ccccc1)[C@H](O)Cc1ccccc1C(=O)NC(C)(C)C` [Example 3, [2R-(2R*, 3S*, 6R*)]-N-t-butyl-2-[2-hydroxy-3-phenylmethyl-4-aza-5-oxo-6-N(ethanoyl)amine-8-oxo-8-N (quinolin-3-yl)amine]octyl benzamide], the IC50 was 0.548 µM.

Consider `CC(C)(C)NC(=O)c1ccccc1C[C@@H](O)[C@H](Cc1ccccc1)NC(=O)[C@@H](CC(=O)OCc1ccccc1)NC(N)=O` [Example 12, [2R-(2R*, 3S*, 6R*)]-N-t-butyl-2-[2-hydroxy-3-phenylmethyl-4-aza-5-oxo-6-N(carbamoyl)amino-7-benzyloxycarbonyl]heptyl benzamide], for which the half-maximal inhibitory concentration (IC50) is 0.0289 µM.

As to `CC(C)(C)NC(=O)c1ccccc1C[C@@H](O)[C@H](Cc1ccccc1)NC(=O)[C@H](N)CSCc1ccccc1` [Example 19B, [2R-(2R*, 3S*, 6S*)]-N-t-Butyl-2-[2-hydroxy-3-phenylmethyl-4-aza-5-oxo-6-amino-7-benzylthio]heptyl benzamide], the IC16 (read-out: Fluorescence Assay IC16) was determined as 1 µg/mL.

Regarding `CC(=O)N[C@H](CS(=O)(=O)c1ccccc1)C(=O)N[C@@H](Cc1ccccc1)[C@H](O)Cc1ccccc1C(=O)NC(C)(C)C` [Example 20C, [2R-(2R*,3S*,6S*)]-N-t-Butyl-2-[2-hydroxy-3-phenylmethyl-4-aza-5-oxo-6-N(ethanoyl)amino-7-phenylsulfonyl]heptyl benzamide], the IC50 is 0.00488 µM.

Turning to `CC(=O)N[C@H](C[S+]([O-])c1ccc2ccccc2n1)C(=O)N[C@@H](Cc1ccccc1)[C@H](O)Cc1ccccc1C(=O)NC(C)(C)C` (stereo partly drawn) [Example 24B, [2R-(2R*,3S*,6S*)]-N-t-Butyl-2-[2-hydroxy-3-phenylmethyl-4-aza-5-oxo-6-N(ethanoyl)amino-7-quinolin-2-ylsulfinyl]heptyl benzamide], the half-maximal inhibitory concentration (IC50) is 0.000207 µM.

On to `CC(C)(C)NC(=O)c1ccccc1C[C@@H](O)[C@H](Cc1ccccc1)NC(=O)[C@@H](CSCc1ccccc1)NC(=O)OC(C)(C)C` [Example 19A, [2R-(2R*, 3S*, 6S*)]-N-t-Butyl-2-[2-hydroxy-3-phenylmethyl-4-aza-5-oxo-6-N (t-butoxycarbonyl)amino-7-benzylthio]heptyl benzamide], for which, where the note is “read-out: Fluorescence Assay IC3”, the IC3 worked out at 1 µg/mL.

Take `CC(C)(C)NC(=O)c1ccccc1C[C@@H](O)[C@H](Cc1ccccc1)NC(=O)[C@H](CC(N)=O)NS(=O)(=O)c1ccccn1` [Example 29C, [2R-(2R*,3S*,6S*)]-N-t-Butyl-2-[2-hydroxy-3-phenylmethyl-4-aza-5-oxo-6-N(pyrid-2-ylsulfonyl)amino-7-carbamoyl]heptyl benzamide]: the IC50 was 0.371 µM.

On to `CC(C)(C)NC(=O)c1ccccc1C[C@@H](O)[C@H](Cc1ccccc1)NC(=O)[C@@H](CSc1ccc2ccccc2c1)NS(C)(=O)=O` [Example 17A, [2R-(2R*, 3S*, 6S*)]-N-t-Butyl-2-[2-hydroxy-3-phenylmethyl-4-aza-5-oxo-6-N (methylsulfonyl)amine-7-naphth-2-ylthio]heptyl benzamide], for which the IC50 is 0.0011 µM.

For `CC(C)(C)NC(=O)c1ccccc1C[C@@H](O)[C@H](Cc1ccccc1)NC(=O)[C@H](N)CSc1ccc2ccccc2c1` [Example 15B, [2R-(2R*,3S*,6S*)]-N-t-Butyl-2-[2-hydroxy-3-phenylmethyl-4-aza-5-oxo-6-amino-7-naphth-2-ylthio]heptyl benzamide], the IC50 was 0.223 µM.

On to `CC(=O)N[C@H](CS(=O)(=O)c1ccc2ccccc2n1)C(=O)N[C@@H](Cc1ccccc1)[C@H](O)Cc1ccccc1C(=O)NC(C)(C)C` [Example 24C, [2R-(2R*,3S*,6S*)]-N-t-Butyl-2-[2-hydroxy-3-phenylmethyl-4-aza-5-oxo-6-N(ethanoyl)amino-7-quinolin-2-ylsulfonyl]heptyl benzamide], for which the IC50 is 0.000248 µM.

As to `CC(=O)N[C@H](CS(=O)(=O)Cc1ccccc1)C(=O)N[C@@H](Cc1ccccc1)[C@H](O)Cc1ccccc1C(=O)NC(C)(C)C` [Example 18B, [2R-(2R*, 3S*, 6S*)]-N-t-Butyl-2-[2-hydroxy-3-phenylmethyl-4-aza-5-oxo-6-N(ethanoyl)amino-7-benzylsulfonyl]heptyl benzamide], the IC50 is 0.0559 µM.

Consider `CC(C)(C)NC(=O)c1ccccc1C[C@@H](O)[C@H](Cc1ccccc1)NC(=O)[C@H](CC(=O)OCc1ccccc1)NC(=O)C(F)(F)F` [Example 41, [2R-(2R*,3S*,6S*)]-N-t-Butyl-2-[2-hydroxy-3-phenylmethyl-4-aza-5-oxo-6-N(trifluoromethylcarbonyl)amino-7-benzyloxycarbonyl]heptyl benzamide], for which the IC52 (read-out: Fluorescence Assay IC52) came to 0.02 µg/mL.

For `CC(C)(C)NC(=O)c1ccccc1C[C@@H](O)[C@H](Cc1ccccc1)NC(=O)[C@H](CC(N)=O)NS(=O)(=O)c1cccc2ccccc12` [Example 33, [2R-(2R*,3S*,6S*)]-N-t-Butyl-2-[2-hydroxy-3-phenylmethyl-4-aza-5-oxo-6-N (naphth-1-ylsulfonyl)amino-7-carbamoyl]heptyl benzamide], the IC50 is 0.0682 µM.

For the molecule `CC(C)(C)NC(=O)c1ccccc1C[C@@H](O)[C@H](Cc1ccccc1)NC(=O)[C@@H](CS(=O)(=O)c1ccc2ccccc2n1)NS(C)(=O)=O` [Example 23D, [2R-(2R*,3S*,6S*)]-N-t-Butyl-2-[2-hydroxy-3-phenylmethyl-4-aza-5-oxo-6-N(methylsulfonyl)amino-7-quinolin-2-ylsulfonyl]heptyl benzamide], the IC50 is 0.00118 µM.

As for `CC(C)(C)NC(=O)c1ccccc1C[C@@H](O)[C@H](Cc1ccccc1)NC(=O)[C@H](CC(=O)OCc1ccccc1)NC(=O)OC(C)(C)C` [Example 31A, [2R-(2R*,3S*,6S*)]-N-t-Butyl-2-[2-hydroxy-3-phenylmethyl-4-aza-5-oxo-6-N(t-butoxycarbonyl)amino-7-benzyloxycarbonyl]heptyl benzamide], for the setting “read-out: Fluorescence Assay IC8”, the IC8 was determined as 1 µg/mL.

Turning to `CC(C)(C)NC(=O)c1ccccc1C[C@@H](O)[C@H](Cc1ccccc1)NC(=O)[C@@H](CSc1ccc(F)cc1)NC(=O)OC(C)(C)C` [Example 37A, [2R-(2R*,3S*,6S*)]-N-t-Butyl-2-[2-hydroxy-3-phenylmethyl-4-aza-5-oxo-6-N(t-butoxycarbonyl)amino-7-(p-fluorophenylthio)]heptyl benzamide], the IC50 is more than 1.57 µM.

For `CC(=O)N[C@H](CC(=O)NCc1ccccc1)C(=O)N[C@@H](Cc1ccccc1)[C@H](O)Cc1ccccc1C(=O)NC(C)(C)C` [Example 4, [2R-(2R*, 3S*, 6R *]-N-t-butyl-2-[2-hydroxy-3-phenylmethyl-4-aza-5-oxo-6-N (ethanoyl)amino-8-oxo-9-aza-10-phenyl]decylbenzamide], the IC50 is 0.341 µM.

`CC(=O)N[C@H](CC(=O)NCc1ccccn1)C(=O)N[C@@H](Cc1ccccc1)[C@H](O)Cc1ccccc1C(=O)NC(C)(C)C` [Example 2, [2R-(2R*, 3S*, 6R*)]-N-t-Butyl-2-[2-hydroxy-3-phenylmethyl-4-aza-5-oxo-6-N(ethanoyl)amino-8-oxo-9-aza-10-pyrid-2-yl]decyl benzamide]: the IC50 is 0.451 µM.

For the molecule `CC(=O)N[C@H](CSc1ccc2ccccc2c1)C(=O)N[C@@H](Cc1ccccc1)[C@H](O)Cc1ccccc1C(=O)NC(C)(C)C` [Example 16A, [2R-(2R*, 3S*, 6S*)]-N-t-Butyl-2-[2-hydroxy-3-phenylmethyl-4-aza-5-oxo-6-N (ethanoyl)amino-7-naphth-2-ylthio]heptyl benzamide], the IC50 was 0.0106 µM.
